Drawing on patent US8642585B2, “Indanyloxydihydrobenzofuranylacetic acids” (Boehringer Ingelheim International GmbH, priority 2012, dated 2014), this text covers EC50 for 26 compounds.

The structures appear in SMILES notation.

The experiment concerns the target human GPR40 receptor (Homo sapiens, UniProt O14842). The experiment is described as follows: Assay II: IP1 accumulation (IPOne HTRF) in 1321N1 cells stably expressing human GPR40. The class given is cell-based. Particulars: 1321N1 cells expressing human GPR40, stimulation 1 h at 37° C., 5% CO2, LiCl 50 mM. The method in brief: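 1321N1 cells stably expressing human GPR40, seeded 24 h earlier, were stimulated with compound for 1 h at 37 °C in LiCl (50 mM) buffer, pH 7.4. IP1 measured by HTRF (665/615 ratio) after lysis and 1 h room temperature; pEC50 via IP1 reference curve and variable-slope sigmoidal fit.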

Sequence of human GPR40 receptor (O14842 whole entry): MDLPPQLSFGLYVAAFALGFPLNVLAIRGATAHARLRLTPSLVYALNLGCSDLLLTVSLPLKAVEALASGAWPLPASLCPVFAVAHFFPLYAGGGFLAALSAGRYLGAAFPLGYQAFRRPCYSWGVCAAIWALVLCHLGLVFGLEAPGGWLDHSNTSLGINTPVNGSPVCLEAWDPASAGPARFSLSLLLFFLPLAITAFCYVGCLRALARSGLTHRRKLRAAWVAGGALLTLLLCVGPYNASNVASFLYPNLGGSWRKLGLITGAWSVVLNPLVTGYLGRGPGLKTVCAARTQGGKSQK

For the compound `Cc1cc(-c2nccs2)cc(C)c1-c1ccc(F)c2c1CC[C@H]2Oc1ccc2c(c1)OC[C@H]2CC(=O)O` [Example 132, {(S)-6-[(R)-4-(2,6-Dimethyl-4-thiazol-2-yl-phenyl)-7-fluoro-indan-1-yloxy]-2,3-dihydro-benzofuran-3-yl}-acetic acid], the EC50 worked out at 2 nM.
In turn, `Cc1cc(-c2cn(C)cn2)cc(C)c1-c1ccc(F)c2c1CC[C@H]2Oc1ccc2c(c1)OC[C@H]2CC(=O)O` [Example 133, {(S)-6-[(R)-4-(2,6-Dimethyl-4-(1-methyl-imidazol-4-yl)-phenyl)-7-fluoro-indan-1-yloxy]-2,3-dihydro-benzofuran-3-yl}-acetic acid] returned an EC50 of 2 nM.
The result for `Cc1cc(-c2ccc(=O)n(C)n2)cc(C)c1-c1ccc(F)c2c1CC[C@H]2Oc1ccc2c(c1)OC[C@H]2CC(=O)O` [Example 101, 2-((S)-6-((R)-4-(2,6-Dimethyl-4-(1-methyl-6-oxo-1,6-dihydropyridazin-3-yl)phenyl)-7-fluoro-2,3-dihydro-1H-inden-1-yloxy)-2,3-dihydrobenzofuran-3-yl)acetic acid] reads 3 nM; that for `Cc1cc(-c2noc(C(C)(C)O)n2)cc(C)c1-c1ccc(F)c2c1CC[C@H]2Oc1ccc2c(c1)OC[C@H]2CC(=O)O` [Example 136, {(S)-6-[(R)-4-(2,6-Dimethyl-4-(5-[2-hydroxy-prop-2-yl]-[1,2,4]oxadiazol-3-yl)-phenyl)-7-fluoro-indan-1-yloxy]-2,3-dihydro-benzofuran-3-yl}-acetic acid], 3 nM; that for `Cc1cc(CCCS(C)(=O)=O)cc(C)c1-c1ccc(F)c2c1CC[C@H]2Oc1ccc2c(c1)OC[C@H]2CC(=O)O` [Example 70, 2-((S)-6-((R)-4-(2,6-Dimethyl-4-(3-(methylsulfonyl)propyl)phenyl)-7-fluoro-2,3-dihydro-1H-inden-1-yloxy)-2,3-dihydrobenzofuran-3-yl)acetic acid], 60 nM.
The result for `Cc1cc(OCc2ccn(C)n2)cc(C)c1-c1ccc(F)c2c1CC[C@H]2Oc1ccc2c(c1)OC[C@H]2CC(=O)O` [Example 145, 2-((S)-6-((R)-4-(2,6-dimethyl-4-((1-methyl-1H-pyrazol-3-yl)methoxy)phenyl)-7-fluoro-2,3-dihydro-1H-inden-1-yloxy)-2,3-dihydrobenzofuran-3-yl)acetic acid] reads 15 nM.
In turn, `Cc1cc(-n2cncn2)cc(C)c1-c1ccc(F)c2c1CC[C@H]2Oc1ccc2c(c1)OC[C@H]2CC(=O)O` [Example 86, 2-((S)-6-((R)-4-(2,6-Dimethyl-4-(1H-1,2,4-triazol-1-yl)phenyl)-7-fluoro-2,3-dihydro-1H-inden-1-yloxy)-2,3-dihydrobenzofuran-3-yl)acetic acid] registered an EC50 of 8 nM.
On to `Cc1nn(C)c(C)c1-c1ncccc1-c1ccc(F)c2c1CC[C@H]2Oc1ccc2c(c1)OC[C@H]2CC(=O)O` [Example 108, {(S)-6-[(R)-7-Fluoro-4-[2-(1,3,5-trimethyl-pyrazol-4-yl)-pyridin-3-yl]-indan-1-yloxy]-2,3-dihydro-benzofuran-3-yl}-acetic acid], for which the half-maximal effective concentration (EC50) was > 10000 nM.
Consider `Cc1cc(C(=O)NCC(C)(C)O)cc(C)c1-c1ccc(F)c2c1CC[C@H]2Oc1ccc2c(c1)OC[C@H]2CC(=O)O` [Example 54, ((S)-6-{(R)-7-Fluoro-4-[4-(2-hydroxy-2-methyl-propylcarbamoyl)-2,6-dimethyl-phenyl]-indan-1-yloxy}-2,3-dihydro-benzofuran-3-yl)-acetic acid], for which the response was half-maximal at 13 nM (EC50).
The result for `Cc1cc(-c2ccnnc2)cc(C)c1-c1ccc(F)c2c1CC[C@H]2Oc1ccc2c(c1)OC[C@H]2CC(=O)O` [Example 90, 2-((S)-6-((R)-4-(2,6-Dimethyl-4-(pyridazin-4-yl)phenyl)-7-fluoro-2,3-dihydro-1H-inden-1-yloxy)-2,3-dihydrobenzofuran-3-yl)acetic acid] reads 5 nM; that for `Cc1cc(OCc2nccn2C)cc(C)c1-c1ccc(F)c2c1CC[C@H]2Oc1ccc2c(c1)OC[C@H]2CC(=O)O` [Example 149, 2-((S)-6-((R)-4-(2,6-dimethyl-4-((1-methyl-1H-imidazol-2-yl)methoxy)phenyl)-7-fluoro-2,3-dihydro-1H-inden-1-yloxy)-2,3-dihydrobenzofuran-3-yl)acetic acid], 12 nM.
As to `Cc1cc(-c2cnn(C)c(=O)c2)cc(C)c1-c1ccc(F)c2c1CC[C@H]2Oc1ccc2c(c1)OC[C@H]2CC(=O)O` [Example 92, 2-((S)-6-((R)-4-(2,6-Dimethyl-4-(1-methyl-6-oxo-1,6-dihydropyridazin-4-yl)phenyl)-7-fluoro-2,3-dihydro-1H-inden-1-yloxy)-2,3-dihydrobenzofuran-3-yl)acetic acid], it took 5 nM to reach a half-maximal effect (EC50).
Regarding `Cc1cc(OC2CCC(C)(O)C2)cc(C)c1-c1ccc(F)c2c1CC[C@H]2Oc1ccc2c(c1)OC[C@H]2CC(=O)O` (single isomer, unassigned) [Example 79], a half-maximal response (EC50) required 5 nM.
Then `Cc1ccc(-c2cc(C)c(-c3ccc(F)c4c3CC[C@H]4Oc3ccc4c(c3)OC[C@H]4CC(=O)O)c(C)c2)nn1` [Example 120, {(S)-6-[(R)-4-(2,6-Dimethyl-4-(6-methyl-pyridazin-3-yl)-phenyl)-7-fluoro-indan-1-yloxy]-2,3-dihydro-benzofuran-3-yl}-acetic acid], with 2 nM.
The result for `Cc1cccc(-c2cc(C)c(-c3ccc(F)c4c3CC[C@H]4Oc3ccc4c(c3)OC[C@H]4CC(=O)O)c(C)c2)n1` [Example 139, {(S)-6-[(R)-4-(2,6-Dimethyl-4-(6-methyl-pyridin-2-yl)-phenyl)-7-fluoro-indan-1-yloxy]-2,3-dihydro-benzofuran-3-yl}-acetic acid] reads 2 nM; that for `Cc1cc(-c2nccn2C)cc(C)c1-c1ccc(F)c2c1CC[C@H]2Oc1ccc2c(c1)OC[C@H]2CC(=O)O` [Example 144, {(S)-6-[(R)-4-(2,6-Dimethyl-4-(1-methyl-imidazol-2-yl)-phenyl)-7-fluoro-indan-1-yloxy]-2,3-dihydro-benzofuran-3-yl}-acetic acid], 17 nM.
In the case of `Cc1cc(OCC2(O)CCOCC2)cc(C)c1-c1ccc(F)c2c1CC[C@H]2Oc1ccc2c(c1)OC[C@H]2CC(=O)O` [Example 66, 2-((S)-6-((R)-7-Fluoro-4-(4-((4-hydroxytetrahydro-2H-pyran-4-yl)methoxy)-2,6-dimethylphenyl)-2,3-dihydro-1H-inden-1-yloxy)-2,3-dihydrobenzofuran-3-yl)acetic acid], the EC50 was 5 nM.
The result for `Cc1cc(OC(C)(C)C(N)=O)cc(C)c1-c1ccc(F)c2c1CC[C@H]2Oc1ccc2c(c1)OC[C@H]2CC(=O)O` [Example 56, ((S)-6-{(R)-4-[4-(1-Carbamoyl-1-methyl-ethoxy)-2,6-dimethyl-phenyl]-7-fluoro-indan-1-yloxy}-2,3-dihydro-benzofuran-3-yl)-acetic acid] reads 43 nM; that for `Cc1cncc(-c2cc(C)c(-c3ccc(F)c4c3CC[C@H]4Oc3ccc4c(c3)OC[C@H]4CC(=O)O)c(C)c2)c1` [Example 111, {(S)-6-[(R)-4-(2,6-Dimethyl-4-(5-methyl-pyridin-3-yl)-phenyl)-7-fluoro-indan-1-yloxy]-2,3-dihydro-benzofuran-3-yl}-acetic acid], 4 nM; that for `O=C(O)C[C@@H]1COc2cc(O[C@@H]3CCc4c(-c5cccnc5-c5ccoc5)ccc(F)c43)ccc21` [Example 105, {(S)-6-[(R)-7-Fluoro-4-(2-furan-3-yl-pyridin-3-yl)-indan-1-yloxy]-2,3-dihydro-benzofuran-3-yl}-acetic acid], 582 nM.
On to `Cc1cc(-c2cc(C)c(-c3ccc(F)c4c3CC[C@H]4Oc3ccc4c(c3)OC[C@H]4CC(=O)O)c(C)c2)nc(C)n1` [Example 115, {(S)-6-[(R)-4-(2,6-Dimethyl-4-(2,6-dimethyl-pyrimidin-4-yl)-phenyl)-7-fluoro-indan-1-yloxy]-2,3-dihydro-benzofuran-3-yl}-acetic acid], for which a half-maximal effect (EC50) was put at 2 nM.
For the compound `Cc1cc(-c2cc(C)c(-c3ccc(F)c4c3CC[C@H]4Oc3ccc4c(c3)OC[C@H]4CC(=O)O)c(C)c2)ccn1` [Example 107, {(S)-6-[(R)-4-(2,6-Dimethyl-4-(2-methyl-pyridin-4-yl)-phenyl)-7-fluoro-indan-1-yloxy]-2,3-dihydro-benzofuran-3-yl}-acetic acid], the concentration giving a half-maximal response (EC50) was 4 nM.
Regarding `Cc1cc(-c2cc(C)c(-c3ccc(F)c4c3CC[C@H]4Oc3ccc4c(c3)OC[C@H]4CC(=O)O)c(C)c2)cnn1` [Example 130, {(S)-6-[(R)-4-(2,6-Dimethyl-4-(6-methyl-pyridazin-4-yl)-phenyl)-7-fluoro-indan-1-yloxy]-2,3-dihydro-benzofuran-3-yl}-acetic acid], the response was half-maximal at 5 nM (EC50).
On to `Cc1cc(OC(C)(C)CO)cc(C)c1-c1ccc(F)c2c1CC[C@H]2Oc1ccc2c(c1)OC[C@H]2CC(=O)O` [Example 55, ((S)-6-{(R)-7-Fluoro-4-[4-(2-hydroxy-1,1-dimethyl-ethoxy)-2,6-dimethyl-phenyl]-indan-1-yloxy}-2,3-dihydro-benzofuran-3-yl)-acetic acid], for which the response was half-maximal at 25 nM (EC50).
Then `Cc1cc(-c2ccn(C)c(=O)c2)cc(C)c1-c1ccc(F)c2c1CC[C@H]2Oc1ccc2c(c1)OC[C@H]2CC(=O)O` [Example 84, 2-((S)-6-((R)-4-(2,6-Dimethyl-4-(1-methyl-2-oxo-1,2-dihydropyridin-4-yl)phenyl)-7-fluoro-2,3-dihydro-1H-inden-1-yloxy)-2,3-dihydrobenzofuran-3-yl)acetic acid], with 9 nM; and `Cc1cc(-c2ccn(C)c(=O)n2)cc(C)c1-c1ccc(F)c2c1CC[C@H]2Oc1ccc2c(c1)OC[C@H]2CC(=O)O` [Example 97, 2-((S)-6-((R)-4-(2,6-Dimethyl-4-(1-methyl-2-oxo-1,2-dihydropyrimidin-4-yl)phenyl)-7-fluoro-2,3-dihydro-1H-inden-1-yloxy)-2,3-dihydrobenzofuran-3-yl)acetic acid], with 5 nM.

In general, EC50 refers to the concentration that produces a half-maximal response.
